# Earlier results in patent publication US20140271931A1, “Anti-Acne Topical Films” (Perosphere Inc., priority 2013, published 2014).
# Columns and labels:
# [1] = tested on: cultured normal and transformed mammalian cells
structure (smiles),measurement,setting,value
CCCCc1ccc(C(=O)O)nc1 [Fusaric acid],penetration of the cell interior compared with picolinic acid,cell interior,penetrates the cell interior much more easily than picolinic acid
"O=C(O)c1ccccn1 [Picolinic acid, 2-pyridine carboxylic acid]",solubility in water,,readily soluble in water
same,inhibition of growth of cultured normal and transformed mammalian cells,[1],inhibits the growth
